Experimental data: PMC10578354 (Journal of Medicinal Chemistry, 2023)

System: T24 and 5637 bladder cancer cell lines and healthy bladder epithelial cells (BdECs)
Experiment: MTT proliferation assay
Assay type: cell-based
Conditions: T24 and 5637 vs BdEC, 72 h treatment, Figure 6B

## CN(C)CCOc1cccc(NC(=O)Cc2c[nH]c3cc(F)ccc23)c1 [NMX-10095, N-(3-(2-(Dimethylamino)ethoxy)phenyl)-2-(6-fluoro-1H-indol-3-yl)acetamide]
  inhibition of cell proliferation, cancer vs healthy cells: differential inhibition of cell proliferation
